From US20240368122A1, “JAK2 INHIBITORS AND METHODS OF USE THEREOF” (RELAY THERAPEUTICS, INC., priority 2021, published 2024)

Columns and labels:
JAK2 JH1 WT (T842-G1132) = target: T1, JAK2 JH1 WT (T842-G1132) (Homo sapiens, UniProt O60674); experiment: Surface Plasmon Resonance (SPR) binding assay, JAK2 JH1 domain; details: SPR, JAK2 JH1 domain
T1 construct: *JAK2 JH1 WT (T842-G1132) N-His60-avi-TEV; His6 (N); TEV cleavage site (N); purchased Biortus
Description: Selected compounds of the present disclosure were tested in a Surface Plasmon Resonance (SPR) Assay to measure their binding kinetics and affinity for proteins of interest.
Prepare buffer: 50 mM HEPES pH 7.5, 150 mM NaCl, 0.05% (v/v) Tween, and 10% (v/v) glycerol were combined and pH was adjusted to 7.5, then filtered. 5 mM DTT, was added, and buffer without DMSO was reserved for compound resuspension. 2% (v/v) DMSO was added for assay buffer, and separately 1% DMSO was used to make buffer for resuspending compounds.
Prepare compounds: Using a Bravo liquid handler, 99 μL of 1% (v/v) DMSO assay buffer was added to 1 μL compounds in DMSO.
Run 8K Method: Biotin CAPture (CAP) chip surface was regenerated prior to run by: Inserting CAP chip into Biacore 8K, prime machine with assay buffer with 2% (v/v) DMSO; Setting instrument temperature to 20° C.; Conditioning surface with NaOH/GdnHCl reagents from CAP chip kit (60 seconds, 10 μL/min); and Capturing oligo-Streptavidin (SA) reagent from CAP kit (600 seconds, 1 μL/min), expected capture ˜2500 RU. JAK2 JH1 or JH2 protein was immobilized by preparing a sample of 0.5 uM JH1 or 0.4 uM JH2 protein diluted in assay buffer without DMSO and supplemented with 10 uM of a selected compound of the invention as a stabilizer (370 seconds, 5 uL/min), expected capture ˜1000 RU. Remaining biotin sites on SA were blocked with 1 uM biotin (30 seconds, 20 uL/min), then equilibrated for 1800 seconds at 100 uL/min. Compounds being assayed were run in single cycle kinetics: 4 doses with a top concentration of 5 uM (JH1) or 500 nM (JH2), dilution factor of 3, at 20° C., for a contact time of 60 seconds, and a dissociation time of 300 seconds (JH1) or 1200 seconds (JH2), at a flow rate of 30 uL/min. The surface was completely regenerated after each compound is run, and JH1 or JH2 protein was immobilized fresh prior to each new compound. Data were fitted kinetically with 1:1 binding model using Biacore Insight Evaluation Software.

[1] = test system: TF1 JAK2 V617F STAT3 reporter; experiment: Cellular TF1 STAT3 assay (luciferase reporter), JAK2 V617F; format: cell-based; details: TF1 JAK2 V617F, read-out: Cell PD-TF1 JAK2 V617F STAT3 (IC50)
How it was run: (§1)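 Compounds were dispensed as 1000× DMSO stocks (10 mM top, 1:3 steps), then V617F JAK2 TF1 cells carrying a STAT3 or STAT5 luciferase reporter were added. After 18-20 h at 37 °C, ONE-glo reagent was added and luminescence measured.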

[2] = test system: TF1 JAK2 V617F STAT5 reporter; experiment: Cellular TF1 STAT5 assay (luciferase reporter), JAK2 V617F; format: cell-based; details: TF1 JAK2 V617F, read-out: Cell PD TF1 V617F STAT5 (IC50)
How it was run: as §1

[3] = target: T2, JAK2 JH2 WT (V536-D812) [W659A, W777A, F794H solubilizing mutations] (Homo sapiens, UniProt O60674, F794H/W659A/W777A); experiment: Surface Plasmon Resonance (SPR) binding assay, JAK2 JH2 domain; details: SPR, JAK2 JH2 domain
T2 construct: **JAK2 JH2 WT (V536-D812) [W659A, W777A, F794H solubilizing mutations]; C-thrombin-avi-His6; thrombin cleavage site (C); His6 (C); purchased Biortus
How it was run: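 Kinetics came from 1:1 fits of single-cycle runs at 20 °C: four 3-fold dilutions from 5 uM for JH1 or 500 nM for JH2, 60 s association, and 300 s or 1200 s dissociation respectively. Protein was freshly captured per compound in the presence of 10 uM stabilizer compound, with running buffer of pH 7.5 HEPES/NaCl/glycerol/DTT plus 2% DMSO.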

T2 sequence (O60674 536-812 W659A/W777A/F794H): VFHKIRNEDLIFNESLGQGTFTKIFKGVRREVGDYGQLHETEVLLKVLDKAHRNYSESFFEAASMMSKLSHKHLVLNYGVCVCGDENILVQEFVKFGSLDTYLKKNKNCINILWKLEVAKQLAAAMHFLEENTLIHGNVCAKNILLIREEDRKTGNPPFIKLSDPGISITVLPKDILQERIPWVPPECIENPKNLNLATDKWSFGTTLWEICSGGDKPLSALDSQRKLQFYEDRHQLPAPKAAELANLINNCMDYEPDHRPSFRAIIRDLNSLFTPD
T1 sequence (O60674 842-1132): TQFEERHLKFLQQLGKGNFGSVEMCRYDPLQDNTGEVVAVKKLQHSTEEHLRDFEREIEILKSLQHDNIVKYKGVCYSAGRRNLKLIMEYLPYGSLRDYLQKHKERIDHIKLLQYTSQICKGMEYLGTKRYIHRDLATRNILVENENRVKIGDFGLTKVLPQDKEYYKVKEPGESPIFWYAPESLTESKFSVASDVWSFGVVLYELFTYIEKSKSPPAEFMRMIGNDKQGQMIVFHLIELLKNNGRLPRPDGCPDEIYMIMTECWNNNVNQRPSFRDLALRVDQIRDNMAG

| Structure (SMILES) | Kd (JAK2 JH1 WT (T842-G1132)) [nM] | IC50 [1] [nM] | IC50 [2] [nM] | Kd [3] [nM] |
| --- | --- | --- | --- | --- |
| CNC(=O)c1nnc(NC(=O)C2CC2)cc1Nc1ccc(C)c(-c2ccc(C(=O)N(C)Cc3ccn(C)n3)nc2)c1OC [Compound 34] | 5000 to 100000 | 50 to 500 | 50 to 500 | 0.01 to 10 |
| CNC(=O)c1nnc(NC(=O)C2CC2)cc1Nc1cccc(-c2ccc(C(=O)N(C)Cc3cc(C#N)ccn3)nn2)c1OC [Compound 35] | 5000 to 100000 | 50 to 500 | 500 to 5000 | 0.01 to 10 |
| CNC(=O)c1nnc(NC(=O)C2CC2)cc1Nc1cccc(-c2cnc(C(=O)N(C)Cc3cc(C#N)ccn3)nc2)c1OC [Compound 36] | 5000 to 100000 | 50 to 500 | 50 to 500 | 0.01 to 10 |
| CNC(=O)c1nnc(NC(=O)C2CC2)cc1Nc1cccc(-c2cnc(C(=O)N(C)Cc3cc(C#N)ccn3)cn2)c1OC [Compound 37] | 5000 to 100000 | 50 to 500 | 50 to 500 | 0.01 to 10 |
| CNC(=O)c1nnc(NC(=O)C2CC2)cc1Nc1cccc(-c2cnn(C3CN(Cc4ccccn4)C3)c2)c1OC [Compound 39] | 500 to 5000 | 50 to 500 | 50 to 500 | 0.01 to 10 |
| CNC(=O)c1nnc(NC(=O)C2CC2)cc1Nc1cccc(-c2ccc(C(=O)N(C)Cc3ccnn3C)nc2)c1OC [Compound 40] | 5000 to 100000 | 500 to 5000 | 500 to 5000 | 0.01 to 10 |
| CNC(=O)c1nnc(NC(=O)C2CC2)cc1Nc1cccc(-c2cnn(C3CN(Cc4ccn(C)n4)C3)c2)c1OC [Compound 41] | 500 to 5000 | 50 to 500 | 50 to 500 | 0.01 to 10 |
| CNC(=O)c1nnc(NC(=O)C2CC2)cc1Nc1ccc(C)c(-c2cnc(C(=O)N(C)Cc3cc(C#N)ccn3)c(F)c2)c1OC [Compound 42] | 5000 to 100000 | 50 to 500 | 50 to 500 | 0.01 to 10 |
| CNC(=O)c1nnc(NC(=O)C2CC2)cc1Nc1ccc(C)c(-c2cnc(C(=O)N(C)Cc3ccccn3)c(F)c2)c1OC [Compound 43] | 5000 to 100000 | 500 to 5000 | 500 to 5000 | 0.01 to 10 |
| CNC(=O)c1nnc(NC(=O)C2CC2)cc1Nc1cccc(-c2cnn(C3CN(Cc4cnn(C)c4)C3)c2)c1OC [Compound 44] | 500 to 5000 | 500 to 5000 | 500 to 5000 | 0.01 to 10 |
| CNC(=O)c1nnc(NC(=O)C2CC2)cc1Nc1cccc(-c2cnc(C(=O)N(C)Cc3cccnn3)c(F)c2)c1OC [Compound 48] | 5000 to 100000 | 500 to 5000 | 500 to 5000 | 0.01 to 10 |
| CNC(=O)c1nnc(NC(=O)C2CC2)cc1Nc1cccc(-c2ccc(C(=O)N(C)Cc3cc(C#N)ccn3)cn2)c1OC [Compound 55] | 5000 to 100000 | 500 to 5000 | 500 to 5000 | 0.01 to 10 |
| [2H]C([2H])([2H])NC(=O)c1nnc(NC(=O)C2CC2)cc1Nc1cccc(-c2ccc(C(=O)N(C)Cc3cc(C#N)ccn3)nc2)c1OC [Compound 61] | 5000 to 100000 | 50 to 500 | 50 to 500 | 0.01 to 10 |
| CNC(=O)c1nnc(NC(=O)C2CC2)cc1Nc1cccc(-c2cnn(C3CN(Cc4cc(C#N)ccn4)C3)c2)c1OC [Compound 66] | 5000 to 100000 | 50 to 500 | 500 to 5000 | 0.01 to 10 |
| CNC(=O)c1nnc(NC(=O)C2CC2)cc1Nc1ccc(C)c(-c2cnn(C3CN(Cc4cc(C#N)ccn4)C3)c2)c1OC [Compound 68] | 5000 to 100000 | 500 to 5000 | 500 to 5000 | 0.01 to 10 |
| CNC(=O)c1nnc(NC(=O)C2CC2)cc1Nc1cccc(-c2cnc(C(=O)N(C)Cc3ccn(C)n3)c(C#N)c2)c1OC [Compound 92] | 5000 to 100000 | 500 to 5000 | 500 to 5000 | 0.01 to 10 |

| Structure (SMILES) | Kd (JAK2 JH1 WT (T842-G1132)) [nM] | IC50 [1] [nM] | IC50 [2] [nM] | Kd [3] [nM] |
| --- | --- | --- | --- | --- |
| CNC(=O)c1nnc(NC(=O)C2CC2)cc1Nc1cccc(-c2ccc(C(=O)N(C)Cc3ccn(C)n3)c(C#N)c2)c1OC [Compound 119] | 5000 to 100000 | 500 to 5000 | 500 to 5000 | 0.01 to 10 |
| CNC(=O)c1nnc(NC(=O)C2CC2)cc1Nc1cccc(-c2ccc(C(=O)N(C)Cc3c(C)ccnc3C)nc2)c1OC [Compound 133] | 5000 to 100000 | 50 to 500 | 50 to 500 | 0.01 to 10 |
| CNC(=O)c1nnc(NC(=O)C2CC2)cc1Nc1cccc(-c2ccc(C(=O)N(C)Cc3cccc(C#N)n3)nc2)c1OC [Compound 135] | 5000 to 100000 | 50 to 500 | 50 to 500 | 0.01 to 10 |
| CNC(=O)c1nnc(NC(=O)C2CC2)cc1Nc1cccc(-c2ccc(C(=O)N(C)Cc3cccnc3C#N)nc2)c1OC [Compound 136] | 5000 to 100000 | 50 to 500 | 500 to 5000 | 0.01 to 10 |
| CNC(=O)c1nnc(NC(=O)C2CC2)cc1Nc1cccc(-c2cnn(C3CN(Cc4nc(C)cs4)C3)c2)c1OC [Compound 141] | 5000 to 100000 | 500 to 5000 | 500 to 5000 | 0.01 to 10 |
| CNC(=O)c1nnc(NC(=O)C2CC2)cc1Nc1cccc(-c2cnn(C3CN(Cc4cccc(F)n4)C3)c2)c1OC [Compound 142] | 500 to 5000 | 50 to 500 | 50 to 500 | 0.01 to 10 |
| CNC(=O)c1nnc(NC(=O)C2CC2)cc1Nc1cccc(-c2cnn(C3CN(Cc4cccc(Cl)n4)C3)c2)c1OC [Compound 143] | 5000 to 100000 | 50 to 500 | 50 to 500 | 0.01 to 10 |
| CNC(=O)c1nnc(NC(=O)C2CC2)cc1Nc1cccc(-c2cnn(C3CN(Cc4cccc(C(F)F)n4)C3)c2)c1OC [Compound 145] | 5000 to 100000 | 50 to 500 | 50 to 500 | 0.01 to 10 |
| CNC(=O)c1nnc(NC(=O)C2CC2)cc1Nc1cccc(-c2ccc(C(=O)N(C)Cc3nncs3)nc2)c1OC [Compound 146] | 5000 to 100000 | 500 to 5000 | 5000 to 100000 | 0.01 to 10 |
| CNC(=O)c1nnc(NC(=O)C2CC2)cc1Nc1cccc(-c2cnn(C3CN(Cc4cccc(C#N)n4)C3)c2)c1OC [Compound 147] | 500 to 5000 | 50 to 500 | 50 to 500 | 0.01 to 10 |
| CNC(=O)c1nnc(NC(=O)C2CC2)cc1Nc1cccc(-c2cnn(C3CN(Cc4ccnc(C)n4)C3)c2)c1OC [Compound 148] | 500 to 5000 | 500 to 5000 | 5000 to 100000 | 0.01 to 10 |
| CNC(=O)c1nnc(NC(=O)C2CC2)cc1Nc1cccc(-c2ccc(C(=O)N(C)Cc3nnc(C)s3)nc2)c1OC [Compound 149] | 5000 to 100000 | 500 to 5000 | 500 to 5000 | 0.01 to 10 |
| CNC(=O)c1nnc(NC(=O)C2CC2)cc1Nc1cccc(-c2cn(C3CN(Cc4ccccn4)C3)nn2)c1OC [Compound 150] | 5000 to 100000 | 500 to 5000 | 500 to 5000 | 0.01 to 10 |
| CNC(=O)c1nnc(NC(=O)C2CC2)cc1Nc1cccc(-c2cn(C3CN(Cc4cccc(C)n4)C3)nn2)c1OC [Compound 151] | 500 to 5000 | 50 to 500 | 50 to 500 | 0.01 to 10 |
| C#Cc1cccc(CN2CC(n3cc(-c4cccc(Nc5cc(NC(=O)C6CC6)nnc5C(=O)NC)c4OC)cn3)C2)n1 [Compound 152] | 500 to 5000 | 50 to 500 | 50 to 500 | 0.01 to 10 |
| CNC(=O)c1nnc(NC(=O)C2CC2)cc1Nc1cc(F)cc(-c2cnn(C3CN(Cc4ccn(C)n4)C3)c2)c1OC [Compound 155] | 5000 to 100000 | 500 to 5000 | 500 to 5000 | 0.01 to 10 |
